In EPA's ToxValDB 9.5 (doi:10.2903/j.efsa.2010.1337):

Test system: Rattus norvegicus
Conditions: chronic; duration: 2 years

| Structure (SMILES) | NOEL |
| --- | --- |
| C=O [Formaldehyde] | 15 mg/kg-day |
| SCS [Methanedithiol] | 15 mg/kg-day |

Same assay, conditions: chronic; duration: 91 days

| Structure (SMILES) | NOEL |
| --- | --- |
| CCC1SSC(CC)S1 (stereo not drawn) [3,5-Diethyl-1,2,4-trithiolane] | 1.9 mg/kg-day |
| CC1SSC(C)S1 (stereo not drawn) [3,5-Dimethyl-1,2,4-trithiolane] | 1.9 mg/kg-day |

Same assay, conditions: short-term; duration: 28 days

| Structure (SMILES) | NOEL |
| --- | --- |
| CC=O [Acetaldehyde] | 125 mg/kg-day |
| CC(S)S [Ethane-1,1-dithiol] | 125 mg/kg-day |
| C=CCSC[C@H](N)C(=O)O [S-Allylcysteine] | 250 mg/kg-day |

Same assay, conditions: subchronic; duration: 90 days

| Structure (SMILES) | NOEL |
| --- | --- |
| CC1SCCSS1 (stereo not drawn) [1,2,4-Trithiane, 3-methyl-] | 0.3 mg/kg-day |
| Cc1ccccc1S [2-Methylbenzenethiol] | 0.51 mg/kg-day |
| C=CCSSCCC [Allyl propyl disulfide] | 4.6 mg/kg-day |
| CC(S)c1ccccc1 (stereo not drawn) [Benzenemethanethiol, .alpha.-methyl-] | 0.43 mg/kg-day |
| Cc1cccc(C)c1S [Benzenethiol, 2,6-dimethyl-] | 0.43 mg/kg-day |
| COc1ccccc1S [Benzenethiol, 2-methoxy-] | 0.51 mg/kg-day |
| C=CCSSSCC=C [Diallyl trisulfide] | 4.6 mg/kg-day |
| CSCS [Methylthiomethylmercaptan] | 0.3 mg/kg-day |

Same assay, conditions: subchronic; duration: 90 days; oral

| Structure (SMILES) | NOEL |
| --- | --- |
| CCC(S)SC(S)CC (stereo not drawn) [1,1'-Sulfanediyldi(propane-1-thiol)] | 0.7 mg/kg-day |
| CC(S)C(C)S (stereo not drawn) [2,3-Butanedithiol] | 0.7 mg/kg-day |

Test system: not given
Conditions: subchronic; duration: 90 days

| Structure (SMILES) | NOAEL |
| --- | --- |
| C1CCC(SSC2CCCCC2)CC1 [Dicyclohexyl disulfide] | 0.23 mg/kg-day |
